# Measured values reported in patent US7064120B2, “Tricyclic pyridyl carboxamides and derivatives thereof tocolytic oxytocin receptor antagonists” (Wyeth, priority 2001, dated 2006).
# Biological target: T1, human vasopressin V2 receptor subtype (Homo sapiens, UniProt P30518)
# T1 construct: host or cells: CHO cells, stably transfected (pZeoSV vector)
# Test: Vasopressin binding in CHO cell membranes expressing human vasopressin V2 subtype receptors ([3H]arginine vasopressin radioligand binding)
# Details: 100 nM
# Experimental: Vasopressin Binding in Chinese Hamster Ovary Cell Membranes Expressing Human Vasopressin V2 Subtype Receptors
# Chinese Hamster Ovary (CHO) cells stably transfected with the human V2 subtype receptors were obtained from M. Thibonnier, Case Western Reserve University School of Medicine, Cleveland, Ohio.
# The trypsin is removed by aspiration and the cells dislodged by tapping. Cell Culture medium (e.g. 30 mL for 1:30 split) is immediately added and mixed well to inactivate trypsin. 1 mL of detached cells is added to new culture flasks containing fresh Cell Culture medium (e.g. into 25 mL per T-150 flask), and mixed gently. The cells are incubated at 37° C. in 5% CO2. The medium is changed at 3 to 4 day interval (or as appropriate). […] All steps are done under sterile conditions.
# The cells are washed twice gently with Hank's Balanced Salt solution (e.g. use 10 mL per T-150 flask). […] The contents are transferred to centrifuge tubes (50 mL) kept in ice bath. All subsequent steps are done at 4° C. The tubes are centrifuged at 300×g for 15 min (1380 rpm on SORVAL, Model RT6000D, using the rotor for 50 mL tubes). The supernatant is discarded and the cells suspended in homogenizing buffer(10 mM Tris-HCl containing 0.25 M sucrose and 1 mM EDTA, pH 7.4) ensuring that the volume of the buffer is about ten times the volume of the cell pellet. The cells are pooled into a centrifuge tube (50 mL) and homogenized with Polytron at setting 6 for 10 sec. The homogenate is transferred into a Potter-Elvjehm homogenizer and homogenized with 3 strokes. The homogenate is centrifuged at 1500×g for 60 min at 4° C. (3100 rpm using SORVAL, model RT6000D, using the rotor for 50 mL tubes). The pellet is discarded. The supernatant is centrifuged at 100,000×g for 60 min. at 4° C. (Beckman L8-80M ultracentrifuge; spin at 37,500 rpm with rotor type 70 Ti for 50 mL tubes; 38,000 rpm with type 80Ti for 15 mL tubes; or 35,800 rpm with rotor type 45Ti). The supernantant is discarded and the pellet suspended in 3 to 4 mL of Tris buffer (50 mM TRIS-HCl, pH 7.4). The protein content is estimated by the Bradford or Lowry method. The volume of the membrane suspension is adjusted with the membrane buffer (50 mM Tris-HCl containing 0.1% BSA and 0.1 mM PMSF) to give 3.0 mg/mL (or as appropriate) of protein. The membranes are aliquoted and stored at −70° C.
# In wells of a 96-well format microtiter plate, is added 90, 110 or 130 μL (to make up a final volume of 200 μL) of assay buffer containing 50 mM of Tris-HCl (pH 7.4), […], 1 mg % aprotinin, 1 mg % leupeptin, 2 mg % 1,10-phenanthroline, 10 mg % trypsin inhibitor, and 0.1 mM PMSF. The inhibitors are added on the day of the experiment. The components are mixed at room temperature, and then kept in ice bath following adjustment of the pH to 7.4. […] For vasopressin and other peptide ligands 20 μL of 50% DMSO is added and the assay buffer volume is adjusted accordingly. To each well is added 50 μL of frozen membrane suspension thawed immediately prior to use and diluted in assay buffer to the required concentration (equivalent to 25 to 50 μg of protein/well as needed). 20 μL of 8 nM [^3H]arginine vasopressin ligand in the assay buffer, prepared just before use is added and incubated at room temperature for 60 min. shaking the plate on a mechanical shaker for the first 15 min. The incubation is stopped by rapid filtration of the plate contents followed by wash with ice-cold buffer (50 mM Tris-HCl, pH 7.4) using a cell harvester (Tomtek and Printed filtermat-B filter paper). The filter paper is thoroughly dried (7–12 min. in a microwave oven) and impregnated with MeltiLex B/H melt-on scintillation wax sheets and the radioactivity counted in a betaplate scintillation counter.
# Binding data is either reported as percent inhibition at a certain concentration or if an IC50 was calculated, as a nanomolar concentration.
# T1 sequence (P30518 whole entry): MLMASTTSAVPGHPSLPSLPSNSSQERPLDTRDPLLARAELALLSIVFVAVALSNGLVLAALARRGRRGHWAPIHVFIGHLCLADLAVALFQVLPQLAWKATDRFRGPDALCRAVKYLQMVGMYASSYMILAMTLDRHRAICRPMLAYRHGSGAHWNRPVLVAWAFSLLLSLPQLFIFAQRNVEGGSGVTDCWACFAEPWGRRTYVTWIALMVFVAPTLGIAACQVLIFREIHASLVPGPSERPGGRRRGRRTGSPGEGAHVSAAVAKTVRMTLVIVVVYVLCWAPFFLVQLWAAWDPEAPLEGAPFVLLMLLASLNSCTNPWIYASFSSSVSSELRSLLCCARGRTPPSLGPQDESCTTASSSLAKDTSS
Structure (SMILES),inhibition at 0.1 µM,V2 % inhibition @ 100 nM
"COc1cc(C(=O)N2Cc3ccc(C(=O)NCc4cccnc4)n3Cc3ccccc32)ccc1-c1cccc2ccccc12 [Example 44, 10-[3-Methoxy-4-(naphthalen-1-yl)benzoyl]-N-(3-pyridinylmethyl)-10,11-dihydro-5H-pyrrolo[2,1-c][1,4]benzodiazepine-3-carboxamide]",31%,–
"COc1ccccc1-c1ccc(C(=O)N2Cc3ccc(C(=O)NCc4cccnc4)n3Cc3ccccc32)cc1OC [Example 45, 10-[(2,2′-Dimethoxy-[1,1′-biphenyl]-4-yl)carbonyl]-N-(3-pyridinylmethyl)-10,11-dihydro-5H-pyrrolo[2,1-c][1,4]benzodiazepine-3-carboxamide]",19%,–
"COc1cccc(-c2ccc(C(=O)N3Cc4ccc(C(=O)NCc5cccnc5)n4Cc4ccccc43)cc2OC)c1 [Example 46, 10-[(2,3′-Dimethoxy-[1,1′-biphenyl]-4-yl)carbonyl]-N-(3-pyridinylmethyl)-10,11-dihydro-5H-pyrrolo[2,1-c][1,4]benzodiazepine-3-carboxamide]",8%,–
"O=C(NCc1cccnc1)c1ccc2n1Cc1ccccc1N(C(=O)c1ccc(-c3cccc4ccccc34)cc1Cl)C2 [Example 47, 10-[2-Chloro-4-(naphthalen-1-yl)benzoyl]-N-(3-pyridinylmethyl)-10,11-dihydro-5H-pyrrolo[2,1-c][1,4]benzodiazepine-3-carboxamide]",6%,–
"Cc1cc(C(=O)N2Cc3ccc(C(=O)NCc4cccnc4)n3Cc3ccccc32)ccc1-c1ccccc1C(F)(F)F [Example 48, 10-{[2-Methyl-2′-trifluoromethyl-[1,1′-biphenyl]-4-yl]carbonyl}-N-(3-pyridinylmethyl)-10,11-dihydro-5H-pyrrolo[2,1-c][1,4]benzodiazepine-3-carboxamide]",9%,–
"COc1ccccc1-c1ccc(C(=O)N2Cc3ccc(C(=O)NCCc4ccccn4)n3Cc3ccccc32)cc1C [Example 49, 10-[(2′-Methoxy-2-methyl-[1,1′-biphenyl]-4-yl)carbonyl]-N-[2-(2-pyridinyl)ethyl]-10,11-dihydro-5H-pyrrolo[2,1-c][1,4]benzodiazepine-3-carboxamide]",26%,–
"Cc1ccccc1-c1ccc(C(=O)N2Cc3ccc(C(=O)NCCc4ccccn4)n3Cc3ccccc32)cc1C [Example 50, 10-[(2,2′-Dimethyl-[1,1′-biphenyl]-4-yl)carbonyl]-N-[2-(2-pyridinyl)ethyl]-10,11-dihydro-5H-pyrrolo[2,1-c][1,4]benzodiazepine-3-carboxamide]",17%,–
"COc1cccc(-c2ccc(C(=O)N3Cc4ccc(C(=O)NCCc5ccccn5)n4Cc4ccccc43)cc2C)c1 [Example 51, 10-[(3′-Methoxy-2-methyl-[1,1′-biphenyl]-4-yl)carbonyl]-N-[2-(2-pyridinyl)ethyl]-10,11-dihydro-5H-pyrrolo[2,1-c][1,4]benzodiazepine-3-carboxamide]",16%,–
"COc1ccccc1-c1ccc(C(=O)N2Cc3ccc(C(=O)NCCc4ccccn4)n3Cc3ccccc32)cc1 [Example 52, 10-[(2′-Methoxy-[1,1′-biphenyl]-4-yl)carbonyl]-N-[2-(2-pyridinyl)ethyl]-10,11-dihydro-5H-pyrrolo[2,1-c][1,4]benzodiazepine-3-carboxamide]",8%,–
"Cc1ccccc1-c1ccc(C(=O)N2Cc3ccc(C(=O)NCCc4ccccn4)n3Cc3ccccc32)cc1 [Example 53, 10-[(2′-Methyl-[1,1′-biphenyl]-4-yl)carbonyl]-N-[2-(2-pyridinyl)ethyl]-10,11-dihydro-5H-pyrrolo[2,1-c][1,4]benzodiazepine-3-carboxamide]",13%,–
"COc1cc(C(=O)N2Cc3ccc(C(=O)NCCc4ccccn4)n3Cc3ccccc32)ccc1-c1ccccc1C [Example 54, 10-[(2-Methoxy-2′-methyl-[1,1′-biphenyl]-4-yl)carbonyl]-N-[2-(2-pyridinyl)ethyl]-10,11-dihydro-5H-pyrrolo[2,1-c][1,4]benzodiazepine-3-carboxamide]",18%,–
"COc1cc(-c2ccccc2C)c(Cl)cc1C(=O)N1Cc2ccc(C(=O)NCCc3ccccn3)n2Cc2ccccc21 [Example 55, 10-[(6-Chloro-3-methoxy-2′-methyl-[1,1′-biphenyl]-4-yl)carbonyl]-N-[2-(2-pyridinyl)ethyl]-10,11-dihydro-5H-pyrrolo[2,1-c][1,4]benzodiazepine-3-carboxamide]",5%,–
"COc1cccc(-c2cc(OC)c(C(=O)N3Cc4ccc(C(=O)NCCc5ccccn5)n4Cc4ccccc43)cc2Cl)c1 [Example 56, 10-[(6-Chloro-3,3′-dimethoxy-[1,1′-biphenyl]-4-yl)carbonyl]-N-[2-(2-pyridinyl)ethyl]-10,11-dihydro-5H-pyrrolo[2,1-c][1,4]benzodiazepine-3-carboxamide]",11%,–
"COc1cc(C(=O)N2Cc3ccc(C(=O)NCCc4ccccn4)n3Cc3ccccc32)ccc1-c1cccc2ccccc12 [Example 57, 10-[3-Methoxy-4-(naphthalen-1-yl)benzoyl]-N-[2-(2-pyridinyl)ethyl]-10,11-dihydro-5H-pyrrolo[2,1-c][1,4]benzodiazepine-3-carboxamide]",33%,–
"COc1ccccc1-c1ccc(C(=O)N2Cc3ccc(C(=O)NCCc4ccccn4)n3Cc3ccccc32)cc1OC [Example 58, 10-[(2,2′-Dimethoxy-[1,1′-biphenyl]-4-yl)carbonyl]-N-[2-(2-pyridinyl)ethyl]-10,11-dihydro-5H-pyrrolo[2,1-c][1,4]benzodiazepine-3-carboxamide]",22%,–
"COc1cccc(-c2ccc(C(=O)N3Cc4ccc(C(=O)NCCc5ccccn5)n4Cc4ccccc43)cc2OC)c1 [Example 59, 10-[(2,3′-Dimethoxy-[1,1′-biphenyl]-4-yl)carbonyl]-N-[2-(2-pyridinyl)ethyl]-10,11-dihydro-5H-pyrrolo[2,1-c][1,4]benzodiazepine-3-carboxamide]",4%,–
"O=C(NCCc1ccccn1)c1ccc2n1Cc1ccccc1N(C(=O)c1ccc(-c3cccc4ccccc34)cc1Cl)C2 [Example 60, 10-[2-Chloro-4-(naphthalen-1-yl)benzoyl]-N-[2-(2-pyridinyl)ethyl]-10,11-dihydro-5H-pyrrolo[2,1-c][1,4]benzodiazepine-3-carboxamide]",15%,–
"Cc1cc(C(=O)N2Cc3ccc(C(=O)NCCc4ccccn4)n3Cc3ccccc32)ccc1-c1ccccc1C(F)(F)F [Example 61, 10-{[2-Methyl-2′-trifluoromethyl=[1,1′-biphenyl]-4-yl]carbonyl}-N-[2-(2-pyridinyl)ethyl]-10,11-dihydro-5H-pyrrolo[2,1-c][1,4]benzodiazepine-3-carboxamide]",–,14%
"COc1ccccc1-c1ccc(C(=O)N2Cc3ccc(C(=O)N(C)CCc4ccccn4)n3Cc3ccccc32)cc1OC [Example 64, 10-[(2,2′-Dimethoxy-[1,1′-biphenyl]-4-yl)carbonyl]-N-methyl-N-[2-(2-pyridinyl)ethyl]-10,11-dihydro-5H-pyrrolo[2,1-c][1,4]benzodiazepine-3-carboxamide]",13%,–
COc1cc(C(=O)N2Cc3ccc(C(=O)N4CCN(c5ccccn5)CC4)n3Cc3ccccc32)ccc1-c1cccc2ccccc12 [Example 83],–,22%
COc1cccc(-c2ccc(C(=O)N3Cc4ccc(C(=O)NCc5ccncc5)n4Cc4ccccc43)cc2OC)c1 [Example 98],–,10%
